Test results as given in patent US20090036547A1 (priority 2005, published 2009).

Experiments:
[1] = tested on: Anopheles gambiae (susceptible) KWA larvae; experiment: WHO standard larval bioassay; format: in vivo; conditions: Example 2, An. Gambiae Susceptible, 10% working dilution in ethanol (mixture 5%+5%), 24 hours
[2] = tested on: Anopheles stephensi (susceptible) Beech larvae; experiment: WHO standard larval bioassay; format: in vivo; conditions: Example 2, An. Stephensi Susceptible, 10% working dilution in ethanol (mixture 5%+5%), 24 hours
[3] = tested on: Anopheles albimanus (susceptible) Mexico larvae; experiment: WHO standard larval bioassay; format: in vivo; conditions: Example 2, An. Albimanus Susceptible, 10% working dilution in ethanol (mixture 5%+5%), 24 hours
[4] = tested on: Aedes aegypti (susceptible) AeAe larvae; experiment: WHO standard larval bioassay; format: in vivo; conditions: Example 2, Ae. Aegypti Susceptible, 10% working dilution in ethanol (mixture 5%+5%), 24 hours
[5] = tested on: Aedes albopictus (susceptible) Albo larvae; experiment: WHO standard larval bioassay; format: in vivo; conditions: Example 2, Ae. albopictus Susceptible, 10% working dilution in ethanol (mixture 5%+5%), 24 hours
[6] = tested on: Culex quinquefasciatus (susceptible) Muheza larvae; experiment: WHO standard larval bioassay; format: in vivo; conditions: Example 2, Cx. quinquefasciatus Susceptible, 10% working dilution in ethanol (mixture 5%+5%), 24 hours
[7] = tested on: Culex pipiens pipiens (susceptible) Pip larvae; experiment: WHO standard larval bioassay; format: in vivo; conditions: Example 2, Cx. pipiens Susceptible, 10% working dilution in ethanol (mixture 5%+5%), 24 hours
[8] = tested on: Anopheles gambiae (DDT resistant) ZANDS larvae; experiment: WHO standard larval bioassay; format: in vivo; conditions: Example 2, An. Gambiae DDT Resistant, 10% working dilution in ethanol (mixture 5%+5%), 24 hours
[9] = tested on: Anopheles gambiae (Pyrethroid Resistant) VKPR larvae; experiment: WHO standard larval bioassay; format: in vivo; conditions: Example 2, An. Gambiae Py. Resistant, 10% working dilution in ethanol (mixture 5%+5%), 24 hours
[10] = tested on: Anopheles stephensi (Organophosphate Resistant) ST Mal larvae; experiment: WHO standard larval bioassay; format: in vivo; conditions: Example 2, An. Stephensi OP Resistant, 10% working dilution in ethanol (mixture 5%+5%), 24 hours
[11] = tested on: Anopheles albimanus (Carbamate Resistant) FEST larvae; experiment: WHO standard larval bioassay; format: in vivo; conditions: Example 2, An. albimanus Carbamate Resistant, 10% working dilution in ethanol (mixture 5%+5%), 24 hours
[12] = tested on: range of mosquito species (larvae); experiment: WHO standard larval bioassay, summary over all strains; format: in vivo, Anopheles, Aedes, Culex; conditions: Example 2, LD90 similar in susceptible and resistant strains

With `Cc1ccc(C(C)C)c(O)c1` [Thymol] the LD90 [1] was 0.177 mL, the LD90 [2] was 0.112 mL and the LD90 [3] was 0.115 mL. It also gave an LD90 [4] of 0.302 mL, an LD90 [5] of 0.172 mL and an LD90 [6] of 0.330 mL. The LD90 [7] was 0.135 mL, the LD90 [8] was 0.235 mL and the LD90 [9] was 0.261 mL. For the same compound, the LD90 [10] was 0.177 mL, the LD90 [11] was 0.224 mL and the “cross resistance to existing insecticide classes (pyrethroids/OP's/Carbamates/Organochlorines)” value [12] was “no evidence of cross resistance”.

For `Cc1ccc(C(C)C)cc1` [p-Cymene, p-cymene], the LD90 [1] was 0.140 mL, the LD90 [2] was 0.085 mL and the LD90 [3] was 0.088 mL. It also gave an LD90 [4] of 0.198 mL, an LD90 [5] of 0.150 mL and an LD90 [6] of 0.215 mL. It also gave an LD90 [7] of 0.120 mL, an LD90 [8] of 0.204 mL and an LD90 [9] of 0.202 mL. For the same compound, the LD90 [10] was 0.134 mL, the LD90 [11] was 0.191 mL and the “cross resistance to existing insecticide classes (pyrethroids/OP's/Carbamates/Organochlorines)” value [12] was “no evidence of cross resistance”.
